Data reported in US9708336B2, “Metallo-beta-lactamase inhibitors” (priority 2014, dated 2017).
Read-outs that look alike come from different tables or passages of the source.

Experiments:
IMP-1 = IMP-1 (Serratia marcescens, UniProt P52699); assay: biochemical; format: biochemical; details: read-out: IMP-1 IC50
VIM-1 = VIM-1 (Pseudomonas aeruginosa (strain ATCC 15692 / DSM 22644 / CIP 104116 / JCM 14847 / LMG 12228 / 1C / PRS 101 / PAO1), UniProt A0A0F7KYQ8); assay: Enzyme activity: determination of IC50, fluorescence assay with CCF2-FA substrate (VIM-1); format: biochemical
Experimental: Enzyme Activity: Determination of IC50
The Class B enzyme activities were measured in the presence of the test inhibitor in a fluorescence assay against a commercially available substrate consisting of a cephalosporin core linking 7-hydroxycoumarin to fluorescein (CCF2-FA). The enzyme (NDM-1, IMP-1 or VIM-1) and the substrate were diluted in 100 mM KH2PO4 buffer (pH 7) containing 0.005% Tween-20 and 10 μM ZnSO4. […] The test inhibitor was dissolved in dimethylsulfoxide and diluted 1:50 in the assay, resulting in a final concentration range of 20 uM to 0.00063 uM. In a 384-well microplate, the test inhibitor was incubated with the metallo-β-lactamase enzyme and the substrate for 2 hours at 25° C. Fluorescence at 460 nm following excitation at 405 nm was measured. The IC50 value was determined from semi-logarithmic plots of enzyme inhibition versus inhibitor concentration, with a curve generated using a 4-parameter fit.

[1] = test system: Klebsiella pneumoniae expressing VIM-1 (IHMA599644); assay: Antibiotic potentiation activity: synergistic concentration (MITC95) with imipenem, OD600 growth; format: cell-based; details: for Klebsiella pneumoniae expressing VIM-1 (IHMA 599644) MITC95: concentration giving 95% inhibition of bacterial growth
How it was run: (§1)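 Inoculum: saline suspension of overnight colonies, 1:100 into 1.1× CAMHB. Imipenem 4 μg/ml final (alt. 1 μg/ml) + compound; 35 °C, 22–24 h; absorbance read-out.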

[2] = test system: Escherichia coli expressing NDM-1 (CLB30005); assay: as above; format: cell-based; details: for Escherichia coli expressing NDM-1 (CLB 30005) MITC95: concentration giving 95% inhibition of bacterial growth
How it was run: as §1

[3] = test system: Serratia marcescens expressing IMP-1 (CL5741); assay: as above; format: cell-based; details: for Serratia marcescens expressing IMP-1 (CL5741) MITC95: concentration giving 95% inhibition of bacterial growth
How it was run: as §1

NDM-1 = NDM-1 (Klebsiella pneumoniae, UniProt C7C422); assay: biochemical; format: biochemical; details: read-out: NDM-1 IC50
Chain of NDM-1 (C7C422 whole entry, looked up, species assumed): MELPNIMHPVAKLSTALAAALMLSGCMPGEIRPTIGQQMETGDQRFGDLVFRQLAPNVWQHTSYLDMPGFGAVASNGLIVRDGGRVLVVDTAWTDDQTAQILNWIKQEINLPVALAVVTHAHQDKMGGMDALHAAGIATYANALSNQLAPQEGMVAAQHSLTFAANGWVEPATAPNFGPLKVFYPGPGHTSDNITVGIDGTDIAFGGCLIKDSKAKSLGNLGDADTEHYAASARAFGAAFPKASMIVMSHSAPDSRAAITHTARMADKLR

[4] = fluorescence assay with CCF2-FA substrate
[5] = fluorescence assay with CCF2-FA substrate, read-out: VIM-1 IC50
[6] = VIM-1 IC50, fluorescence assay with CCF2-FA substrate

Chain of IMP-1 (P52699 whole entry, looked up): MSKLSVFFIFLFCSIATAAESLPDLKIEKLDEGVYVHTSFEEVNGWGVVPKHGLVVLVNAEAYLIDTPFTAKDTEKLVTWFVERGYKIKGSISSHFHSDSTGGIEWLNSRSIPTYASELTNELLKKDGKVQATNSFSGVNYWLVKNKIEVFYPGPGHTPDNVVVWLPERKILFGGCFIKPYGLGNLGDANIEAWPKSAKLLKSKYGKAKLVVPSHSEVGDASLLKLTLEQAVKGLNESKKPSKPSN

SMILES	IC50 (IMP-1; [4]) [nM]	IC50 (VIM-1; [5]) [nM]	Klebsiella pneumoniae expressing VIM-1 (IHMA 599644) MITC95 [1] [µM]	Escherichia coli expressing NDM-1 (CLB 30005) MITC95 [2] [µM]	Serratia marcescens expressing IMP-1 (CL5741) MITC95 [3] [µM]	IC50 (NDM-1; [4]) [nM]	IC50 (IMP-1; IMP-1 enzyme, CCF2-FA fluorescence assay) [nM]	IC50 (VIM-1; VIM-1 enzyme, CCF2-FA fluorescence assay, read-out: VIM-1 IC50) [nM]	Klebsiella pneumoniae MITC95 ([1]; Klebsiella pneumoniae expressing VIM-1 (IHMA599644), 95% growth inhibition) [µM]	Escherichia coli MITC95 ([2]; Escherichia coli expressing NDM-1 (CLB30005), 95% growth inhibition) [µM]	Serratia marcescens MITC95 ([3]; Serratia marcescens expressing IMP-1 (CL5741), 95% growth inhibition) [µM]	IC50 (NDM-1; NDM-1 enzyme, CCF2-FA fluorescence assay) [nM]	IC50 (VIM-1; [6]) [nM]
CS(=O)(=O)Nc1cccc(-c2ccnc(S(N)(=O)=O)c2-c2nn[nH]n2)c1 [Example 202, 4-(3-(methylsulfonamido)phenyl)-3-(2H-tetrazol-5-yl)pyridine-2-sulfonamide]	23.8	118	25	0.3906	2.344	11.5	–	–	–	–	–	–	–
NS(=O)(=O)c1cccc(C2CCCN(C(=O)C3CC3)C2)c1-c1nn[nH]n1 (stereo not drawn) [Example 177, 3-(1-(cyclopropanecarbonyl)piperidin-3-yl)-2-(2H-tetrazol-5-yl)benzenesulfonamide]	668	733	>200	6.25	37.5	12.8	–	–	–	–	–	–	–
NS(=O)(=O)c1cccc(-c2ccc(N3CCOCC3)nc2)c1-c1nn[nH]n1 [Example 323, 3-(6-morpholinopyridin-3-yl)-2-(2H-tetrazol-5-yl)benzenesulfonamide]	–	–	–	–	–	–	70.6	151	200	2.344	12.5	7.69	–
CN(C)CCNC(=O)c1ccc(-c2cccc(S(N)(=O)=O)c2-c2nn[nH]n2)cc1 [Example 87, N-[2-(dimethylamino)ethyl]-3′-sulfamoyl-2′-(2H-tetrazol-5-yl)biphenyl-4-carboxamide]	908	2090	200	3.906	18.75	95.5	–	–	–	–	–	–	–
CS(=O)(=O)CCn1cc(-c2cccc(S(N)(=O)=O)c2-c2nn[nH]n2)cn1 [Example 54, 3-{1-[2-(methylsulfonyl)ethyl]-1H-pyrazol-4-yl}-2-(2H-tetrazol-5-yl)benzenesulfonamide]	205	937	>200	2.344	18.75	42.3	–	–	–	–	–	–	–
NS(=O)(=O)c1nccc(-c2ccc(C(=O)O)cc2)c1-c1nnn[nH]1 [Example 183, 4-(2-Sulfamoyl-3-(1H-tetrazol-5-yl)pyridin-4-yl)benzoic acid]	339	–	75	4.688	50	11.5	–	–	–	–	–	–	173
NS(=O)(=O)c1cccc(-c2ccc3c(c2)C(=O)NC3)c1-c1nn[nH]n1 [Example 53, 3-(3-oxo-2,3-dihydro-1H-isoindol-5-yl)-2-(2H-tetrazol-5-yl)benzenesulfonamide]	73.3	37	37.5	0.5859	6.25	4.41	–	–	–	–	–	–	–
NS(=O)(=O)c1nccc(-c2ccc3cn[nH]c3c2)c1-c1nn[nH]n1 [Example 203, 4-(1H-indazol-6-yl)-3-(2H-tetrazol-5-yl)pyridine-2-sulfonamide]	1430	43.6	9.375	0.3906	50	18.6	–	–	–	–	–	–	–
CS(=O)(=O)c1ccc(-c2cccc(S(N)(=O)=O)c2-c2nn[nH]n2)cc1 [Example 16, 4′-(methylsulfonyl)-2-(2H-tetrazol-5-yl)biphenyl-3-sulfonamide]	85.5	–	75	1.172	25	10.5	–	–	–	–	–	–	67.1
